Experimental data as given in publication PMC3961306, “Comparison of the Cancer Gene Targeting and Biochemical Selectivities of All Targeted Kinase Inhibitors Approved for Clinical Use” (PLoS ONE, 2014).

Assays:
Assay in all cases: Kinase profiling in a biochemical assay panel (mobility shift assays and ELISA), %-inhibition at 1 μM; selectivity entropy
[1] = biological target: panel of more than 300 wild-type and mutant kinases (313 kinase panel) (Homo sapiens, UniProt Q9NYA1)
[2] = biological target: panel of more than 300 wild-type and mutant kinases (313 kinase panel) (Homo sapiens, UniProt P05129)
[3] = biological target: panel of more than 300 wild-type and mutant kinases (313 kinase panel) (Homo sapiens, UniProt Q14289)
[4] = biological target: panel of more than 300 wild-type and mutant kinases (313 kinase panel) (Homo sapiens, UniProt P04049)
[5] = biological target: panel of more than 300 wild-type and mutant kinases (313 kinase panel) (Homo sapiens, UniProt Q9P0L2)
[6] = biological target: panel of more than 300 wild-type and mutant kinases (313 kinase panel) (Homo sapiens, UniProt P07949, S891A)
[7] = biological target: T1, panel of more than 300 wild-type and mutant kinases (313 kinase panel) (Homo sapiens, UniProt Q99759)
T1 sequence (Q99759 1-626): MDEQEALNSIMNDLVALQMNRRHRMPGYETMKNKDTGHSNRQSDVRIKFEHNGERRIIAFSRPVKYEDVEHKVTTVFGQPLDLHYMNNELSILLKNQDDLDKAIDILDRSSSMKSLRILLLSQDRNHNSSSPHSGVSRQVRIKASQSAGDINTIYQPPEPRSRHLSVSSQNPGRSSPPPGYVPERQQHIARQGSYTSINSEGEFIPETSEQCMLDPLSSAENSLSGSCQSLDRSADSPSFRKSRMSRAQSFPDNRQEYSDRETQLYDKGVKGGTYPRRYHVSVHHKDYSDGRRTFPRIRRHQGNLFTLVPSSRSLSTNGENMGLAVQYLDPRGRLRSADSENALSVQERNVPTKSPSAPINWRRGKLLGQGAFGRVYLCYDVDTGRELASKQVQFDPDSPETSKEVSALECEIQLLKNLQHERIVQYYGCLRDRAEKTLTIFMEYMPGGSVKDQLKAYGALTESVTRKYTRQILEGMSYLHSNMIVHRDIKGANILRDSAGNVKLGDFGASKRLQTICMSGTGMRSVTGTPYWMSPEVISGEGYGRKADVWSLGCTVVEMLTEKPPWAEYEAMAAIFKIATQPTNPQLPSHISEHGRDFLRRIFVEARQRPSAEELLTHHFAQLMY

[8] = biological target: T2, panel of more than 300 wild-type and mutant kinases (313 kinase panel) (Homo sapiens, UniProt Q96PN8)
T2 sequence (Q96PN8 1-268): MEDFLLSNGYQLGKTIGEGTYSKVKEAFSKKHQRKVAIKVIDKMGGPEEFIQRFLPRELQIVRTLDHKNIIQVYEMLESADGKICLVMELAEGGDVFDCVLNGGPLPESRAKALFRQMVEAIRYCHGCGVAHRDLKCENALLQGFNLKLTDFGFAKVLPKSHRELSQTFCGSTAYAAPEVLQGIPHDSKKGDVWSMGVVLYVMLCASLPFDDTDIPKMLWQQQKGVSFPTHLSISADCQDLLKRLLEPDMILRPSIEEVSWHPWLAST

[9] = biological target: panel of more than 300 wild-type and mutant kinases (313 kinase panel) (Homo sapiens, UniProt P36507)
[10] = biological target: panel of more than 300 wild-type and mutant kinases (313 kinase panel) (Homo sapiens, UniProt Q00526)
[11] = biological target: panel of more than 300 wild-type and mutant kinases (313 kinase panel) (Homo sapiens, UniProt P45983)
[12] = biological target: panel of more than 300 wild-type and mutant kinases (313 kinase panel) (Homo sapiens, UniProt P24941)
[13] = kinase MAP3K3, compound at 1 μM
[14] = kinase CDK2/CycA2, 1 μM compound
[15] = kinase CDK2/CycE1, 1 μM compound
[16] = kinase MAP2K2, compound at 1 μM
[17] = kinase CDK3/CycE1, 1 μM compound

Chain of panel of more than 300 wild-type and mutant kinases (313 kinase panel) (Homo sapiens, UniProt Q14289) (Q14289 whole entry, change not shown): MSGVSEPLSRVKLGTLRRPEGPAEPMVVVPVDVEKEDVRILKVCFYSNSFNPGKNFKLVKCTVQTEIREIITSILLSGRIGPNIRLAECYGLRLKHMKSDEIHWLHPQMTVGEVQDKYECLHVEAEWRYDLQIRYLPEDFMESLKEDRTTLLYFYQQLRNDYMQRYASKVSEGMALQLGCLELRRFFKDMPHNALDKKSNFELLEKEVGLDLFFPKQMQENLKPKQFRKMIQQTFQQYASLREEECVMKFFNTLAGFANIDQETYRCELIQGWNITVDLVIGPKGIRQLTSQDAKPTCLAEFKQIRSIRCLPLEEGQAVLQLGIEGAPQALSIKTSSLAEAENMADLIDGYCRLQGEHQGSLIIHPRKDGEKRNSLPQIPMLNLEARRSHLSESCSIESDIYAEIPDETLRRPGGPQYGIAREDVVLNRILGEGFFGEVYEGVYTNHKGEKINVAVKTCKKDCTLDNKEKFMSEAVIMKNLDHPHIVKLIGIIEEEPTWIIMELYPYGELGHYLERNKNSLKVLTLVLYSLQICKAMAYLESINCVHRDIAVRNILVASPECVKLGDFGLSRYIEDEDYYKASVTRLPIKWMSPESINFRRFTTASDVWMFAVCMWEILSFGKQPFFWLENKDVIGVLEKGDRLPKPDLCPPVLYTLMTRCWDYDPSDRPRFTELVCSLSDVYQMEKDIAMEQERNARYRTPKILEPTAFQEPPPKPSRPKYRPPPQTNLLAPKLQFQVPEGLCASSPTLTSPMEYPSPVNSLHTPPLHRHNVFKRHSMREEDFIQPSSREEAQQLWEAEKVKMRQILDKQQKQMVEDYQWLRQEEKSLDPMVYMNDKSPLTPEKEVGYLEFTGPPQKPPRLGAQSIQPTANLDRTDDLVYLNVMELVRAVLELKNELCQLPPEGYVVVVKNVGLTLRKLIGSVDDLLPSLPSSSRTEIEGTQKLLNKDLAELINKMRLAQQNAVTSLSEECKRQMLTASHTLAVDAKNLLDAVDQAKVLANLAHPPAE
Chain of panel of more than 300 wild-type and mutant kinases (313 kinase panel) (Homo sapiens, UniProt Q00526) (Q00526 whole entry, change not shown): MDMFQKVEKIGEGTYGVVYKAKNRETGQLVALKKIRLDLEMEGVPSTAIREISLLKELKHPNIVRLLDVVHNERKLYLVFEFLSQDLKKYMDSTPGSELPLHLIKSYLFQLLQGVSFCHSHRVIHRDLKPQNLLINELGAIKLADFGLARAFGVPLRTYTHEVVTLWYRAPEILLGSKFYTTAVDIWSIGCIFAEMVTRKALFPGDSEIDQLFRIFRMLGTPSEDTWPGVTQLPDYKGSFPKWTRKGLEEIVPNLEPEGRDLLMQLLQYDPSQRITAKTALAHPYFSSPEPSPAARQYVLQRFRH
Chain of panel of more than 300 wild-type and mutant kinases (313 kinase panel) (Homo sapiens, UniProt P45983) (P45983 whole entry, change not shown): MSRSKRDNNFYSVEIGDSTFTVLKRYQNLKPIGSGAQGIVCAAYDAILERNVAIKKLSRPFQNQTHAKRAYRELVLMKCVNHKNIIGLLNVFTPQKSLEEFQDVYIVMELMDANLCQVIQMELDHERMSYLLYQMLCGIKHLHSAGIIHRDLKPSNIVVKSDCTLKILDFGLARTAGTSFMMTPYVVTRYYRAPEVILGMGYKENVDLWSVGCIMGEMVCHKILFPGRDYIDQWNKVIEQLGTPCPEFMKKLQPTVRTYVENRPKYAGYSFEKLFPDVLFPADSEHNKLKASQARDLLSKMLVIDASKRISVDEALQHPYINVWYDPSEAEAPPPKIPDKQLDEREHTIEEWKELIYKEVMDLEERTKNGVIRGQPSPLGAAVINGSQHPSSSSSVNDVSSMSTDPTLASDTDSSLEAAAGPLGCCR
Chain of panel of more than 300 wild-type and mutant kinases (313 kinase panel) (Homo sapiens, UniProt Q9P0L2) (Q9P0L2 whole entry, stated change not applied): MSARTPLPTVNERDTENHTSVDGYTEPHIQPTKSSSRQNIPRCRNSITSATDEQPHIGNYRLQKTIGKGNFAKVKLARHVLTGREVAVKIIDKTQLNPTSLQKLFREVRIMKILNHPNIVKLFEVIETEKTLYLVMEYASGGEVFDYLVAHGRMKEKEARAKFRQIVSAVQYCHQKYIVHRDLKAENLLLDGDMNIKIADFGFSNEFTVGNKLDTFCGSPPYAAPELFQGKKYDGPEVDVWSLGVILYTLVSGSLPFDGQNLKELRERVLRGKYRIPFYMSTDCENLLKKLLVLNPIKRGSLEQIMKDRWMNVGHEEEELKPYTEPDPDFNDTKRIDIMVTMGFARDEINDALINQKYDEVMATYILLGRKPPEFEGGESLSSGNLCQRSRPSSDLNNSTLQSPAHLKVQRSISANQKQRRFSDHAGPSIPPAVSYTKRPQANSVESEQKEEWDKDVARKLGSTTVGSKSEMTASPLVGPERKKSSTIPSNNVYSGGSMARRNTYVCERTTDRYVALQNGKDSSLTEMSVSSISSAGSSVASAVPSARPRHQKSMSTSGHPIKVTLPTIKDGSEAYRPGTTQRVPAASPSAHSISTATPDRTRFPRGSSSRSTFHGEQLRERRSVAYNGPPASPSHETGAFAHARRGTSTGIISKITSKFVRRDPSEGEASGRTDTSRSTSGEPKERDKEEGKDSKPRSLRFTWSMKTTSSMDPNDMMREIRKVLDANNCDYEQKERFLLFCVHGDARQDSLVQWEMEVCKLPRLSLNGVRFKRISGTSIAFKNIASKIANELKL
Chain of panel of more than 300 wild-type and mutant kinases (313 kinase panel) (Homo sapiens, UniProt P04049) (P04049 whole entry, change not shown): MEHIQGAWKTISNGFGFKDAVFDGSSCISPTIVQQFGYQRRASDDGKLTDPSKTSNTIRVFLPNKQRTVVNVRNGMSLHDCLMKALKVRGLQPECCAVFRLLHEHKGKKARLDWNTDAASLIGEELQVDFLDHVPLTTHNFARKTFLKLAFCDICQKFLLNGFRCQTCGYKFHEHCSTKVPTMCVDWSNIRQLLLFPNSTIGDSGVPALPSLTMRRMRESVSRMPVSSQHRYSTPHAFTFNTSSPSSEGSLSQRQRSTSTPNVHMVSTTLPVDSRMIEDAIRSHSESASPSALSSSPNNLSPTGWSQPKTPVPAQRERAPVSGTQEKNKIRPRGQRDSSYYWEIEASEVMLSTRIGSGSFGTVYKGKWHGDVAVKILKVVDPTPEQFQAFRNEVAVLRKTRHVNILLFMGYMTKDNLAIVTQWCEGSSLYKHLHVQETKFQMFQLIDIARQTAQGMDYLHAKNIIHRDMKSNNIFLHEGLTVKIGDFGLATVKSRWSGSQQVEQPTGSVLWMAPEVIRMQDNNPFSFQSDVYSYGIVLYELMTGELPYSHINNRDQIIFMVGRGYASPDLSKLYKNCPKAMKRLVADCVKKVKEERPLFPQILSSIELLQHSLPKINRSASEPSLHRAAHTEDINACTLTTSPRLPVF
Chain of panel of more than 300 wild-type and mutant kinases (313 kinase panel) (Homo sapiens, UniProt P07949, S891A) (P07949 29-1114 S891A): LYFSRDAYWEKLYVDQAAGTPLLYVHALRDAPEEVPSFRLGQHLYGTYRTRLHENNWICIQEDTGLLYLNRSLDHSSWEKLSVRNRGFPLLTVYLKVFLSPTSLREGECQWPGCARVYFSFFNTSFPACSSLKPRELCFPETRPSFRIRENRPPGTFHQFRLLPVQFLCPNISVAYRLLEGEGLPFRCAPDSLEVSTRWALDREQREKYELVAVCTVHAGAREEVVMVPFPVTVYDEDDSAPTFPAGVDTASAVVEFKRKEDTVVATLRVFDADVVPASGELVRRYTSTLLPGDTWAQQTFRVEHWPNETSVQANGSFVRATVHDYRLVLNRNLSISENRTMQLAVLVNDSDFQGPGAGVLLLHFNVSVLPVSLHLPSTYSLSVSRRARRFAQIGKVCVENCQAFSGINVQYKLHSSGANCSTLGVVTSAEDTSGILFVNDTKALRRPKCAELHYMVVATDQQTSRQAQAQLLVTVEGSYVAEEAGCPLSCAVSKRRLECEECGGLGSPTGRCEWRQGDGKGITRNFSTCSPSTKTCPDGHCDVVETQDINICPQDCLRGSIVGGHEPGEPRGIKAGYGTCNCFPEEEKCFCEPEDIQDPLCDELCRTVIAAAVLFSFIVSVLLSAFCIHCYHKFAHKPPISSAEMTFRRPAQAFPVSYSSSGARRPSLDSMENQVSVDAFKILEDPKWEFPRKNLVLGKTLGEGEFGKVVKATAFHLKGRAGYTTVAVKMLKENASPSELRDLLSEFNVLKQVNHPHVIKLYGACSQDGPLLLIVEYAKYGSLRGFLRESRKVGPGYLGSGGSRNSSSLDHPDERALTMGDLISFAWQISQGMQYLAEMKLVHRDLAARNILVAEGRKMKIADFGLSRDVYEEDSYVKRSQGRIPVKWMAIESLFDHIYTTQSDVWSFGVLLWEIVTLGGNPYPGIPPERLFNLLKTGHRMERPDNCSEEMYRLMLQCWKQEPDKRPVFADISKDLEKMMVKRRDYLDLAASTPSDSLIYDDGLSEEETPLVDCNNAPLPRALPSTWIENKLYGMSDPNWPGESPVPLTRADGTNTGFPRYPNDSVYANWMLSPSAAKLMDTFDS

SMILES: CN(C)C/C=C/C(=O)Nc1cc2c(Nc3ccc(F)c(Cl)c3)ncnc2cc1O[C@H]1CCOC1 [afatinib]
- %-inhibition of SPHK1 ([1]; kinase SPHK1, 1 μM): -2%
- %-inhibition of PKCγ ([2]; kinase PKCγ, 1 μM): 3%

SMILES: COc1cc(Nc2c(C#N)cnc3cc(OCCCN4CCN(C)CC4)c(OC)cc23)c(Cl)cc1Cl [bosutinib]
- %-inhibition of PYK2 ([3]; kinase PYK2, 1 μM): 89%
- %-inhibition of RAF1 ([4]; kinase RAF1, 1 μM): -3%
- %-inhibition of MARK1 ([5]; 1 µM): 31%
- %-inhibition of SPHK1 ([1]; kinase SPHK1, 1 μM): -23%
- %-inhibition of RET(S891A) ([6]; kinase RET(S891A), 1 μM): 90%
- %-inhibition of MAP3K3 [7, 13]: 91%
- %-inhibition of TSSK3 ([8]; kinase TSSK3, compound at 1 μM): -2%
- %-inhibition of PKCγ ([2]; kinase PKCγ, 1 μM): 12%
- %-inhibition of MAP2K2 ([9]; 1 µM): 96%
- %-inhibition, CDK3/CycE1 ([10]; 1 µM): 1%

SMILES: COc1cc2nccc(Oc3ccc(NC(=O)C4(C(=O)Nc5ccc(F)cc5)CC4)cc3)c2cc1OC [cabozantinib]
- %-inhibition of PYK2 ([3]; kinase PYK2, 1 μM): 91%
- %-inhibition of RAF1 ([4]; kinase RAF1, 1 μM): 48%
- %-inhibition of JNK1 ([11]; kinase JNK1, compound at 1 μM): -2.85%
- %-inhibition of MARK1 ([5]; kinase MARK1, compound at 1 μM): -1%
- %-inhibition of SPHK1 ([1]; kinase SPHK1, 1 μM): -12%
- %-inhibition of MAP3K3 [7, 13]: 9%
- %-inhibition, CDK2/CycA2 [12, 14]: -9%
- %-inhibition, CDK2/CycE1 [12, 15]: 5%
- %-inhibition of TSSK3 ([8]; kinase TSSK3, compound at 1 μM): -1.06%
- %-inhibition of PKCγ ([2]; kinase PKCγ, 1 μM): -4%
- %-inhibition of MAP2K2 [9, 16]: 61%
- %-inhibition, CDK3/CycE1 [10, 17]: -2.84%

SMILES: C[C@@H](Oc1cc(-c2cnn(C3CCNCC3)c2)cnc1N)c1c(Cl)ccc(F)c1Cl [crizotinib]
- %-inhibition of RAF1 ([4]; kinase RAF1, 1 μM): 11%
- %-inhibition of JNK1 ([11]; kinase JNK1, compound at 1 μM): 0.431%
- %-inhibition of MARK1 ([5]; kinase MARK1, compound at 1 μM): 27%
- %-inhibition of SPHK1 ([1]; kinase SPHK1, 1 μM): -14%
- %-inhibition, CDK2/CycE1 [12, 15]: -14%
- %-inhibition of TSSK3 ([8]; kinase TSSK3, compound at 1 μM): -0.601%
- %-inhibition of PKCγ ([2]; kinase PKCγ, 1 μM): -0.662%
- %-inhibition of MAP2K2 [9, 16]: 13%
- %-inhibition, CDK3/CycE1 [10, 17]: -5.68%

SMILES: CC(C)(C)c1nc(-c2cccc(NS(=O)(=O)c3c(F)cccc3F)c2F)c(-c2ccnc(N)n2)s1 [dabrafenib]
- %-inhibition of PYK2 ([3]; kinase PYK2, 1 μM): 56%
- %-inhibition of RAF1 ([4]; kinase RAF1, 1 μM): 99%
- %-inhibition of JNK1 ([11]; kinase JNK1, compound at 1 μM): -1.12%
- %-inhibition of MARK1 ([5]; kinase MARK1, compound at 1 μM): -15%
- %-inhibition of SPHK1 ([1]; kinase SPHK1, 1 μM): -18%
- %-inhibition of RET(S891A) ([6]; kinase RET(S891A), 1 μM): 53%
- %-inhibition of MAP3K3 [7, 13]: 6%
- %-inhibition of TSSK3 ([8]; kinase TSSK3, compound at 1 μM): -8%
- %-inhibition of PKCγ ([2]; kinase PKCγ, 1 μM): -0.381%

SMILES: Cc1nc(Nc2ncc(C(=O)Nc3c(C)cccc3Cl)s2)cc(N2CCN(CCO)CC2)n1 [dasatinib]
- %-inhibition of MAP3K3 [7, 13]: 88%
- %-inhibition, CDK2/CycA2 [12, 14]: 5%
- %-inhibition, CDK2/CycE1 [12, 15]: 12%
- %-inhibition of TSSK3 ([8]; kinase TSSK3, compound at 1 μM): -2.69%
- %-inhibition, CDK3/CycE1 [10, 17]: 2.27%

SMILES: C#Cc1cccc(Nc2ncnc3cc(OCCOC)c(OCCOC)cc23)c1 [erlotinib]
- %-inhibition of PYK2 ([3]; 1 µM): 8%
- %-inhibition of RAF1 ([4]; 1 µM): 0.534%
- %-inhibition of JNK1 ([11]; 1 µM): 1.68%
- %-inhibition of MARK1 ([5]; 1 µM): 11%
- %-inhibition of SPHK1 ([1]; 1 µM): -14%
- %-inhibition of RET(S891A) ([6]; 1 µM): 93%
- %-inhibition of MAP3K3 ([7]; 1 µM): 17%
- %-inhibition, CDK2/CycA2 ([12]; 1 µM): 10%
- %-inhibition, CDK2/CycE1 ([12]; 1 µM): -2.43%
- %-inhibition of TSSK3 ([8]; 1 µM): -7%
- %-inhibition of PKCγ ([2]; 1 µM): 8%
- %-inhibition of MAP2K2 ([9]; 1 µM): 8%
- %-inhibition, CDK3/CycE1 ([10]; 1 µM): 7%
